According to patent US4005103A, “Pyrrolidine derivatives” (priority 1973, dated 1977):
Counter-ions that a name gives are not always drawn. Like-named read-outs stand apart in the source and are kept apart here.

What was measured:
[1] = Anorexigenic activity in dogs; format: in vivo, Beagle dogs; settings: Canis lupus familiaris, read-out: percentage inhibition of consuming food
Experimental: 2. ANOREXIGENIC ACTIVITY IN DOGS
Beagle dogs are conditioned to take their food over the course of 5 minutes once per day. The test compound is administered orally in the form of a single dose of 10 mg/kg one hour before the food is presented. The amount of food ingested is measured at regular intervals.
Table II gives the percentage inhibition of consuming food as a function of the time after treatment.

[2] = Potentiation of amphetamine: stereotypies in rats after d-amphetamine sulphate; format: in vivo; settings: 30 min before 5 mg/kg d-amphetamine sulphate i.p., over 3 hours, maximum 24
Experimental: 1. POTENTIATION OF AMPHETAMINE
The test compound is administered intraperitoneally to rats 30 minutes before the intraperitoneal injection of 5 mg/kg of d-amphetamine sulphate. The intensity of the stereotypies over a period of 3 hours is assessed by attributing a number from 0 to 4. Table I indicates the sum of the assessments as a function of the doses administered. The maximum assessment is 24.

[3] = Toxicity, mice in groups (death rate); settings: mouse, in vivo, 4 hours after treatment, read-out: percentage death rate
Experimental: (§1) Batches of 10 mice are placed in boxes covered with grids (20 × 10 × 10 cm), either isolated individually, or in groups of 10. The test compound is administered orally to them. The death rate is noted 4 hours after the treatment.
(§2) Tables IV and V below give the percentage death rate for the products of Examples XXIV and XXVII compared with d-amphetamine sulphate.

[4] = Cardiovascular activity in anaesthetised dogs; format: in vivo; settings: amphetamine injected intravenously
Text: 5. CARDIOVASCULAR ACTIVITY

[5] = Toxicity, isolated mice (death rate); settings: mouse, in vivo, 4 hours after treatment, read-out: percentage death rate
Experimental: as §1, §2

[6] = Beagle dogs, 10 mg/kg oral, 1 hr after treatment
[7] = Beagle dogs, 10 mg/kg oral, 2 hrs after treatment
[8] = Beagle dogs, 10 mg/kg oral, 4 hrs after treatment
[9] = Beagle dogs, 10 mg/kg oral, 24 hrs after treatment

Row | SMILES | inhibition in vivo at 10 mg/kg ([1]; po, 1 h) | inhibition in vivo at 10 mg/kg ([1]; po, 2 h) | sum of the assessments of intensity of stereotypies ([2]; 1 mg/kg intraperitoneal) | sum of the assessments of intensity of stereotypies ([2]; 4 mg/kg intraperitoneal) | sum of the assessments of intensity of stereotypies ([2]; 16 mg/kg intraperitoneal) | inhibition in vivo at 10 mg/kg [1, 6] | inhibition in vivo at 10 mg/kg [1, 7] | sum of the assessments of intensity of stereotypies ([2]; 2 mg/kg intraperitoneal) | sum of the assessments of intensity of stereotypies ([2]; 8 mg/kg intraperitoneal) | sum of the assessments of intensity of stereotypies ([2]; 32 mg/kg intraperitoneal) | further results
1 | CC1NC(C2CC2)CC1c1ccccc1.Cl (stereo not shown) [Example XXII, 2-cyclopropyl-4-phenyl-5-methyl-pyrrolidine hydrochloride] | 50% | 50% | 8 | 9 | 12 | – | – | – | – | – | inhibition in vivo at 10 mg/kg ([1]; po, 4 h): 0%
2 | CC1(C)NC(C2CC2)CC1c1cccc(F)c1.Cl (stereo not shown) [XXVIII, 2-cyclopropyl-4-(m-fluorophenyl)-5,5-dimethylpyrrolidine hydrochloride] | – | – | 16 | 17 | 16 | 100% | 100% | – | – | – | inhibition in vivo at 10 mg/kg [1, 8]: 100%; inhibition in vivo at 10 mg/kg [1, 9]: 0%
3 | CC1C(c2ccc(Cl)c(Cl)c2)CC(C2CC2)N1Cc1ccccc1.Cl (stereo not shown) [XXXIV, N-benzyl-2-cyclopropyl-4-(3',4'-dichlorophenyl)-5-methylpyrrolidine hydrochloride] | – | – | – | – | – | 100% | 100% | 20 | 21 | 15 | inhibition in vivo at 10 mg/kg [1, 8]: 100%; inhibition in vivo at 10 mg/kg [1, 9]: 50%; inhibition in vivo at 10 mg/kg ([1]; Beagle dogs, 10 mg/kg oral, 48 hrs after treatment): 0%
4 | Cc1ccc(C2CC(C3CC3)NC2C)cc1.Cl (stereo not shown) [XXXIII, 2-cyclopropyl-4-(p-methylphenyl)-5-methyl-pyrrolidine hydrochloride] | 0% | 0% | – | – | – | – | – | 12 | 19 | 24 | –
5 | CC1(C)NC(C2CC2)CC1c1ccc(Cl)cc1.Cl (stereo not shown) [Example XXIII, 2-cyclopropyl-4-(p-chlorophenyl)-5,5-dimethyl-pyrrolidine hydrochloride] | – | – | – | – | – | 100% | 100% | 12 | 18 | 17 | inhibition in vivo at 10 mg/kg [1, 8]: 100%; inhibition in vivo at 10 mg/kg [1, 9]: 50%
6 | CC1(C)NC(C2CC2)CC1c1ccc2c(c1)OCO2 (stereo not shown) [XXXII, 2-cyclopropyl-4-(3',4'-methylenedioxyphenyl)-5,5-dimethylpyrrolidine hydrochloride] | 100% | 100% | – | – | – | – | – | 18 | 24 | 23 | inhibition in vivo at 10 mg/kg ([1]; po, 4 h): 100%; inhibition in vivo at 10 mg/kg ([1]; po, 24 h): 0%
7 | CC1(C)NC(C2CC2)CC1c1cccc(Cl)c1.Cl (stereo not shown) [XXVI, 2-cyclopropyl-4-(m-chlorophenyl)-5,5-dimethylpyrrolidine hydrochloride] | – | – | 12 | 14 | 19 | 60% | 60% | – | – | – | inhibition in vivo at 10 mg/kg [1, 8]: 60%; inhibition in vivo at 10 mg/kg [1, 9]: 0%
8 | CC1(C)NC(C2CC2)CC1c1ccccc1.Cl (stereo not shown) [Example XXI, 2-cyclopropyl-4-phenyl-5,5-dimethylpyrrolidine hydrochloride] | 100% | 100% | – | 10 | 13 | – | – | – | 11 | – | inhibition in vivo at 10 mg/kg ([1]; po, 4 h): 70%; inhibition in vivo at 10 mg/kg ([1]; po, 24 h): 0%
9 | CC(N)Cc1ccccc1 (stereo not drawn) [Amphetamine, d-amphetamine sulphate, reference compound] | – | – | – | – | – | – | – | – | – | – | mortality at 4 h ([3]; 4 mg/kg oral): 0%; mortality at 4 h ([3]; 8 mg/kg oral): 20%; mortality at 4 h ([3]; 16 mg/kg oral): 100%; mortality at 4 h ([3]; 32 mg/kg oral): 100%; pulmonary and systemic hypertension [4]: causes pulmonary and systemic hypertension; mortality at 4 h ([5]; 16 mg/kg oral): 0%; mortality at 4 h ([5]; 32 mg/kg oral): 0%; mortality at 4 h ([5]; 64 mg/kg oral): 10%; mortality at 4 h ([5]; 128 mg/kg oral): 100%
10 | C#CCN1C(C)C(c2ccc(Cl)c(Cl)c2)CC1C1CC1.Cl (stereo not shown) [Example XXXV, N-propargyl-2-cyclopropyl-4-(3',4'-dichlorophenyl)-5-methylpyrrolidine hydrochloride] | 60% | 60% | 18 | 23 | 23 | – | – | – | – | – | inhibition in vivo at 10 mg/kg ([1]; po, 4 h): 60%; inhibition in vivo at 10 mg/kg ([1]; po, 24 h): 0%
11 | CC1(C)NC(C2CC2)CC1c1cccc(C(F)(F)F)c1.Cl (stereo not shown) [Example XXX, 2-cyclopropyl-4-(m-trifluoromethylphenyl)-5,5-dimethylpyrrolidine hydrochl oride] | – | – | 20 | 24 | 24 | 0% | 0% | – | – | – | –
12 | CC1NC(C2CC2)CC1c1cccc(Cl)c1.Cl (stereo not shown) [XXV, 2-cyclopropyl-4-(m-chlorophenyl)-5-methylpyrrolidine hydrochloride] | – | – | – | – | – | 50% | 50% | 18 | 23 | – | inhibition in vivo at 10 mg/kg [1, 8]: 50%; inhibition in vivo at 10 mg/kg [1, 9]: 0%; sum of the assessments of intensity of stereotypies ([2]; 0.5 mg/kg intraperitoneal): 13
13 | C#CCN1C(C)C(c2ccc(Cl)cc2)CC1C1CC1.Cl (stereo not shown) [XXXVI, N-propargyl-2-cyclopropyl-4-(p-chlorophenyl)-5-methylpyrrolidine hydrochloride] | 0% | 0% | – | – | – | – | – | – | 24 | 24 | –
14 | CC1C(c2ccc(Cl)cc2)CC(C2CC2)N1CCO.Cl (stereo not shown) [XXXVII, N-hydroxyethyl-2-cyclopropyl-4-(p-chlorophenyl)-5-methylpyrrolidine hydrochloride] | – | – | – | – | 24 | 0% | 0% | 12 | – | 24 | –
15 | COc1ccc(C2CC(C3CC3)NC2C)cc1OC.Cl (stereo not shown) [XXXI, 2-cyclopropyl-4-(3',4'-dimethoxyphenyl)-5-methylpyrrolidine hydrochloride] | – | – | – | – | – | 0% | 0% | 10 | 24 | 23 | –
16 | CCN1C(C)C(c2cccc(C(F)(F)F)c2)CC1C1CC1 (stereo not shown) [XXXVIII, N-ethyl-2-cyclopropyl-4-(m-trifluoromethylphenyl)-5-methylpyrrolidine] | 0% | 0% | 20 | 24 | – | – | – | – | 24 | – | –
17 | CC1NC(C2CC2)CC1c1cccc(C(F)(F)F)c1.Cl (stereo not shown) [XXIX, 2-cyclopropyl-4-(m-trifluoromethylphenyl)-5-methyl-pyrrolidine hydrochloride] | – | – | 17 | 22 | 16 | 0% | 0% | – | – | – | –
